Results on four molecules are retold here after ChEMBL document CHEMBL1275318, “The preparation of bi-functional organophosphine oxides as potential antitumor agents” (Eur J Med Chem, 2010).

In brackets after ≈: the same amount, converted by molar mass. Several values for one entry are separate records, joined by “and”; a condition that tells them apart may be missing. Equal values may be shown once. Activity calls are given as the source filed them. The calls are words filed in the database; no cut-off is given here.

Usually IC50 stands for the point on the concentration scale where inhibition reaches its midpoint.

A short description of series [1]: Cytotoxicity against human Hep3B cells after 48 hrs by SRB assay. It counts as functional, cell-based, Hep 3B2. A general note: In SRB staining, fixed cells bind dye roughly in proportion to their protein.
The subject of the next series is Hep 3B2. Put plainly: Antitumor activity against human Hep3B cells xenografted in athymic nude mouse assessed as retardation of tumor growth at 10 mg/kg/day, ip for 4 consecutive days. It counts as functional, organism-based. (In general: A xenograft is tissue or cells of one species grown in another, often human tumour cells in immunodeficient mice.)
Series [2] relates to Mus musculus. Put plainly: Toxicity in human Hep3B cells xenografted athymic nude mouse assessed as induction of necrotic damage in kidney at 10 mg/kg/day, ip for 4 consecutive days. It counts as organism-based, Hep 3B2. More on the design: route intraperitoneal. To be noted: in vivo.
Series [3] concerns Mus musculus. Put plainly: Toxicity in human Hep3B cells xenografted athymic nude mouse assessed as induction of necrotic damage in liver at 10 mg/kg/day, ip for 4 consecutive days. It counts as organism-based, Hep 3B2. More on the design: route intraperitoneal. The conditions noted are these: in vivo.
The mark [4] stands for this setting: Homo sapiens, Hep3B, 48 h, read-out: IC50.

As for `COc1cc(P(c2ccccc2)c2ccccc2)c(-c2c(P(c3ccccc3)c3ccccc3)cc(OC)nc2OC)c(OC)n1`, the IC50 in series [1] (setting [4]) is over 50 µg/mL.

Consider `COc1cc(P(=O)(c2ccccc2)c2ccccc2)c(-c2c(P(=O)(c3ccccc3)c3ccccc3)cc(OC)nc2OC)c(OC)n1`, for which the half-maximal inhibitory concentration (IC50) was 47 µg/mL (≈ 69.5 µM) in series [1] (setting [4]); 43 µg/mL and 42 µg/mL in series [1] (hep 3b2).

In the case of `c1ccc(P(c2ccccc2)c2ccc3ccccc3c2-c2c(P(c3ccccc3)c3ccccc3)ccc3ccccc23)cc1`, in series [1] (setting [4]), the IC50 is over 50 µg/mL.

Turning to `O=P(c1ccccc1)(c1ccccc1)c1ccc2ccccc2c1-c1c(P(=O)(c2ccccc2)c2ccccc2)ccc2ccccc12`, the results for the IC50 in series [1] (setting [4]) and in series [1] (hep 3b2) were 14 µg/mL (≈ 21.4 µM) and 12 µg/mL (≈ 18.3 µM), respectively. Also, in the series on Hep 3B2, the inhibition result was “Active”. In addition, the Activity result in the series with Mus musculus [2] and with Mus musculus [3] was “Non-toxic” throughout.
